# Where two headings read alike, the source gives them in different places.
# Tests used:
# E. faecium 367 LNZR = experiment: MIC determination, linezolid resistant E. faecium 367 LNZR; assay type: cell-based; conditions: Enterococcus faecium
# Method: (§1) E. faecium ATCC 19434 strain at a cell density of 10^6/ml was inoculated in Mueller Hinton broth medium containing Linezolid at a concentration of 5 and 7.5 mcg/ml. The stationary culture was incubated at 37° C. and inspected at every 24 hours to assess the formation of turbidity due to the onset of bacterial growth. […] A 50 microliter sample of turbid flask was plated on Mueller Hinton agar medium incorporated with linezolid at 7.5 mcg/ml. The agar plates were incubated for 48 hours at 37° C. for the formation of discrete colonies of linezolid-resistant strain of E. faecium (E. faecium 367 LNZR). MICs of resistant mutant E. faecium 367 LNZR and parent strain E. faecium ATCC 19434 were determined for linezolid by NCCLS method.
# (§2) Cultures were further diluted 1:10 in Mueller Hinton broth. Using Denley's mutipoint inoculator, 10^4 cells were deposited on Mueller Hinton agar (Difco) containing range of 2 fold dilutions of test compounds. […] MIC is defined as minimum drug concentration that inhibits test organisms. For determining MIC of test compounds against Streptococcus pneumoniae, Mueller Hinton agar containing 5% sheep blood was employed.
# S. aureus MRSA-32 LNZR = experiment: MIC determination, linezolid resistant S. aureus MRSA-32 LNZR; assay type: cell-based; conditions: Staphylococcus aureus
# Method: (§3) Infecting doses of organisms given by intraperitoneal route in 5% hog gastric mucin were 10^3-10^4 CFU (colony forming units)/animal for SPN 6303 and 10^8 CFU/animal for MRSA-32. In case of MRSA-32, Linezolid was administered by oral route, 1 and 4 h post infection, BID (twice a day) for 1 day and for SPN 6303 BID for 2 days. […] MICs of Methicillin Resistant Staphylococcus aureus-32 Linezolid resistant (MRSA-32 LNZR), S. pneumoniae 744 Linezolid resistant (SPN 744 LNZR) and parent Linezolid sensitive strains MRSA-32 and SPN 6303 were determined for Linezolid by NCCLS agar dilution method.
# as §2
# [1] = test system: Enterococcus faecalis 416 strain; experiment: Propensity to resistance development (resistant colonies per plate); assay type: cell-based; conditions: E. faecalis 416 at 10^8 CFU, compound concentration 5 mcg/ml, 48 hours at 35° C.
# Method: Enterococcus faecalis 416 strain at 10^8 CFU density level was spirally plated on Mueller Hinton agar containing 5 mcg/ml each of linezolid and representative compound of the invention. Plates were incubated at 35° C. for 48 hours and number of resistant colonies developed in presence of respective compounds were counted by automated counter.
# [2] = test system: Enterococcus faecalis 416; experiment: Mutant Prevention Concentration (MPC) determination; assay type: cell-based; set-up: unit not given here; conditions: E. faecalis 416, 10^9 CFU/plate, TSA, 48 hours at 35° C.
# Method: Clinical isolate Enterococcus faecalis 416 was spirally plated on Tryptic Soya agar (TSA) plate containing various 2 fold dilutions each of a representative compound of the invention and Linezolid so as to give 10^9 CFU/plate. After incubation at 35° C. for 48 hours, the CFU on each plate was determined. MPC is defined as minimum concentration of drug that prevents mutant colonies on respective antibiotic containing plate.
# SPN 744 LNZR [3] = experiment: MIC determination, linezolid resistant SPN 744 LNZR; assay type: cell-based; conditions: Streptococcus pneumoniae
# Method: as §3, §2
# SPN 49619 = experiment: MIC determination, linezolid sensitive SPN 49619; assay type: cell-based; conditions: Streptococcus pneumoniae; linezolid sensitive strain, Table 3
# MRSA 032 = experiment: MIC determination, linezolid sensitive MRSA 032 (MRSA-32); assay type: cell-based; conditions: Staphylococcus aureus
# Method: as §3, §2
# [4] = test system: Enterococcus faecalis 416 strain; experiment: Killing effect study (bactericidal vs bacteriostatic activity); assay type: cell-based; conditions: initial count 10^6 CFU/ml; for Final Count (112 h): E. faecalis 416, 5 mcg/ml compound, Table 4
# Method: The initial inoculum was adjusted to 10^6 CFU (colony forming units) per ml. The flasks were kept on shaker in close cabinet at 35° C. Aliquots were drawn at 112 hours and cell count was determined to assess the extent of loss in viability.
# SPN 6303 = experiment: ED50 in mouse systemic infection model, SPN 6303; assay type: in vivo; conditions: SPN 6303 parent strain
# Method: as §3
# S. aureus Smith = experiment: MIC determination, S. aureus Smith; assay type: cell-based; conditions: Staphylococcus aureus, read-out: Linezolid MIC
# MRSA-32 LNZR = experiment: ED50 in mouse systemic infection model, MRSA-32 LNZR; assay type: in vivo
# S. aureus Smith LR = experiment: MIC determination, linezolid-resistant mutant S. aureus Smith LR; assay type: cell-based; conditions: Staphylococcus aureus, read-out: Linezolid MIC
# MRSA 032 LR = experiment: MIC determination, linezolid-resistant mutant MRSA 032 LR; assay type: cell-based; conditions: Staphylococcus aureus, read-out: Linezolid MIC
# E. faecium ATCC 19434 = experiment: MIC determination, parent strain E. faecium ATCC 19434; assay type: cell-based; conditions: Enterococcus faecium, ATCC19434; Linezolid sensitive E. faecium ATCC 19434, NCCLS method
# Method: as §1
# S. pneumoniae ATCC 6303 = experiment: MIC determination, linezolid sensitive S. pneumoniae ATCC 6303 (SPN 6303); assay type: cell-based; conditions: Streptococcus pneumoniae, ATCC6303
# Method: as §3
# MRSA-32 = experiment: ED50 in mouse systemic infection model, MRSA-32; assay type: in vivo; conditions: MRSA-32 parent strain
# Method: as §3
# [5] = test system: S. pneumoniae ATCC 6303 LR; experiment: MIC determination, linezolid-resistant mutant S. pneumoniae ATCC 6303 LR; assay type: cell-based; conditions: Streptococcus pneumoniae, ATCC6303, read-out: Linezolid MIC
# SPN 744 LNZR [6] = experiment: ED50 in mouse systemic infection model, SPN 744 LNZR; assay type: in vivo
# [7] = read-out: MIC E. faecium 367 LNZR
# [8] = 24 h, read-out: MIC MRSA 32 LNZR
SMILES,MIC (E. faecium 367 LNZR; [7]) [µg/mL],MIC (S. aureus MRSA-32 LNZR; [8]) [µg/mL],No. of colonies/plate [1],MPC [2],MIC (SPN 744 LNZR [3]; read-out: MIC SPN744 LNZR) [µg/mL],MIC (SPN 49619) [µg/mL],MIC (MRSA 032; read-out: MIC MRSA 32) [µg/mL],Final Count (112 h) [4],other results
"N#CC=C1CCN(c2ccc(N3C[C@H](CNC(=O)C(Cl)Cl)OC3=O)cc2F)CC1 [Example 32, (S)-N-{3-[4-(4-cyanomethylidene-piperidin-1-yl)-3-fluorophenyl]-2-oxo-oxazolidin-5-ylmethyl}-dichloroacetamide]",6.25,12.5,0,6.25,6.25,0.8,0.8,,
"CC(=O)NC[C@H]1CN(c2ccc(N3CCC(=CC#N)CC3)c(F)c2)C(=O)O1 [Example 9, (S)-N-{3-[4-(4-cyanomethylidene-piperidin-1-yl)-3-fluorophenyl]-2-oxo-oxazolidin-5-ylmethyl}-acetamide]",,,0,6.25,,,,10^3 CFU/ml,
"CC(=O)NC[C@H]1CN(c2ccc(N3CCOCC3)c(F)c2)C(=O)O1 [Linezolid, reference compound]",> 25,> 25,1.2 × 10^2,12.5,25,0.8,1.56,10^8 CFU/ml,"MIC (E. faecium 367 LNZR): 25 µg/mL; MIC (S. aureus MRSA-32 LNZR): 50 µg/mL; ED50 (SPN 6303): 75 mg/kg; MIC (S. aureus Smith): 1.56 µg/mL; ED50 (MRSA-32 LNZR): 100 mg/kg; MIC (S. aureus Smith LR): 50 µg/mL; MIC (MRSA 032 LR): 25 µg/mL; MIC (E. faecium ATCC 19434): 1.56 µg/mL; MIC (SPN 744 LNZR [3]): 25 µg/mL; MIC (S. pneumoniae ATCC 6303; S. pneumoniae ATCC 6303, Table 1, read-out: Linezolid MIC): 0.8 µg/mL; MIC (S. pneumoniae ATCC 6303; parent Linezolid sensitive SPN 6303, NCCLS agar dilution method, read-out: MIC): 0.8 µg/mL; ED50 (MRSA-32): 5 mg/kg; MIC [5]: 25 µg/mL; final count after killing effect study ([4]; E. faecalis 416, 5 mcg/ml): 10^9 CFU/ml; MIC (MRSA 032): 1.56 µg/mL; MIC (MRSA 032; read-out: Linezolid MIC): 1.56 µg/mL; ED50 (SPN 744 LNZR [6]): > 200 mg/kg"
"CC(=S)NC[C@H]1CN(c2ccc(N3CC=C(CC#N)CC3)c(F)c2)C(=O)O1 [Example 160, (S)-N-{3-[4-(4-cyanomethyl-3,4-dehydropiperidin-1-yl)-3-fluorophenyl]-2-oxo-oxazolidin-5-ylmethyl}-thioacetamide]",,6.25,0,,3.12,0.2,0.4,<10^2 CFU/ml,
"COC(=S)NC[C@H]1CN(c2ccc(N3CCC(=CC#N)CC3)c(F)c2)C(=O)O1 [Example 46, (S)-N-{3-[4-(4-cyanomethylidene-piperidin-1-yl)-3-fluorophenyl]-2-oxo-oxazolidin-5-ylmethyl}-methylthiocarbamate]",1.56,6.25,0,1.56,6.25,0.2,0.2,<10^2 CFU/ml,

# From patent US7405228B2, “Antibacterial cyano-(substituted)-methylenepiperidinophenyl oxazolidinones targeting multiple ribonucleoprotein sites” (Wockhardt Limited, priority 2002, dated 2008)
